Here are results for 4 compounds from ChEMBL document CHEMBL5518172, “Discovery of hydroxamate as a promising scaffold dually inhibiting metallo- and serine-β-lactamases” (Eur J Med Chem, 2024).

The source made the active and inactive calls. A value given as a limit tells only on which side of the number the result lay.

In series [1] the test system is Escherichia coli. Briefly: Synergistic antibacterial activity against Escherichia coli BL21 (DE3) harboring serine beta lactamase OXA-48 assessed as decrease in bacterial colony at 128 microg/ml incubated for 12 hrs in presence of meropenem by imaging analysis. Type of series: functional, organism-based. The conditions noted are these: dose 128.0 µg/ml.
Series [2] concerns Escherichia coli. Kind of series: Synergistic antibacterial activity against Escherichia coli BL21 (DE3) harboring NDM-1 assessed as decrease in bacterial colony at 128 microg/ml incubated for 12 hrs in presence of meropenem by imaging analysis. Type of series: functional, organism-based. The conditions noted are these: dose 128.0 µg/ml.
The subject of series [3] is Escherichia coli. Briefly: Synergistic antibacterial activity against Escherichia coli BL21 (DE3) harboring metallo-beta lactamase IMP-1 assessed as fold decrease in meropenem MIC at 64 microg/ml measured after 16 hrs by CLSI protocol based broth microdilution method. To be noted: dose 64 µg/ml. Format: functional.
Series [4] deals with Bacteria. Kind of series: Inhibition of recombinant serine beta lactamase KPC-2 (unknown origin) expressed in Escherichia coli BL21 (DE3) cells using meropenem as substrate at 20 uM by spectrometric analysis relative to control.
Series [5] deals with Escherichia coli. Kind of series: Synergistic antibacterial activity against Escherichia coli BL21 (DE3) harboring metallo-beta-lactamase IMP-1 assessed as meropenem MIC at 64 microg/ml measured after 16 hrs by CLSI protocol based broth microdilution method (reference value: 64 microg/ml). The conditions noted are these: dose 64 µg/ml. Format: functional. On the technique in general: Broth dilution looks for growth in wells or tubes with falling amounts of substance.

The nature of series [6]: Inhibition of recombinant serine beta lactamase KPC-2 (unknown origin) expressed in Escherichia coli BL21 (DE3) cells using meropenem as substrate by spectrometric analysis. Further details: species or system Bacteria.
Series [7] in a line: Cytotoxicity against mouse L929 cells assessed as cell viability upto 200 uM incubated for 48 hrs by CCK8 assay relative to control. Format: toxicity, cell-based. The conditions noted are these: read-out: Activity. (Tetrazolium assays rely on reduction of a dye to a coloured formazan, in cell work by metabolically active cells.)
For series [8], the system named is Escherichia coli. Kind of series: Synergistic antibacterial activity against Escherichia coli BL21 (DE3) harboring serine beta lactamase OXA-48 assessed as meropenem MIC at 64 microg/ml measured after 16 hrs by CLSI protocol based broth microdilution method (reference value: 1 microg/ml). Type of series: functional. To be noted: dose 64 µg/ml.
Series [9] concerns Escherichia coli. Kind of series: Synergistic antibacterial activity against Escherichia coli clinical isolate 10 assessed as decrease in bacterial colony at 128 microg/ml incubated for 12 hrs in presence of meropenem by imaging analysis. Type of series: functional, organism-based. The conditions noted are these: dose 128.0 µg/ml.
Series [10] is described as follows: Inhibition of recombinant metallo-beta-lactamase IMP-1 (unknown origin) expressed in Escherichia coli BL21 (DE3) cells using meropenem as substrate by spectrometric analysis. Further details: species or system Bacteria.
The subject of series [11] is Bacteria. Briefly: Inhibition of recombinant serine beta lactamase OXA-48 (unknown origin) expressed in Escherichia coli BL21 (DE3) cells using meropenem as substrate at 20 uM by spectrometric analysis relative to control.
Series [12] can be described thus: Inhibition of recombinant serine beta lactamase OXA-48 (unknown origin) expressed in Escherichia coli BL21 (DE3) cells using meropenem as substrate by spectrometric analysis. Also on record: species or system Bacteria.
For series [13], the system named is Escherichia coli. Kind of series: Synergistic antibacterial activity against Escherichia coli harboring serine beta-lactamase OXA-48 infected in Kunming mouse model assessed as reduction in bacterial load in liver at 20 mg/kg, ip co-administered with 1 mg/kg of meropenem. Type of series: functional, organism-based.
In series [14] the test system is Escherichia coli. Briefly: Synergistic antibacterial activity against Escherichia coli BL21 (DE3) harboring serine beta lactamase KPC-2 assessed as meropenem MIC at 64 microg/ml measured after 16 hrs by CLSI protocol based broth microdilution method (reference value: 16 microg/ml). Format: functional. To be noted: dose 64 µg/ml.
Series [15] relates to Escherichia coli. Kind of series: Synergistic antibacterial activity against Escherichia coli BL21 (DE3) harboring serine beta lactamase KPC-2 assessed as decrease in bacterial colony at 128 microg/ml incubated for 12 hrs in presence of meropenem by imaging analysis. Type of series: functional, organism-based. To be noted: dose 128.0 µg/ml.
Series [16] concerns Escherichia coli. Kind of series: Synergistic antibacterial activity against Escherichia coli BL21 (DE3) harboring serine beta lactamase OXA-48 assessed as fold decrease in meropenem MIC at 64 microg/ml measured after 16 hrs by CLSI protocol based broth microdilution method. Type of series: functional. The conditions noted are these: dose 64 µg/ml.
In series [17] the test system is Escherichia coli. Briefly: Synergistic antibacterial activity against Escherichia coli BL21 (DE3) harboring NDM-1 assessed as meropenem MIC at 64 microg/ml measured after 16 hrs by CLSI protocol based broth microdilution method (reference value: 256 microg/ml). The conditions noted are these: dose 64 µg/ml. Type of series: functional.
Series [18] deals with Escherichia coli. Briefly: Synergistic antibacterial activity against Escherichia coli BL21 (DE3) harboring NDM-1 assessed as fold decrease in meropenem MIC at 64 microg/ml measured after 16 hrs by CLSI protocol based broth microdilution method. The conditions noted are these: dose 64 µg/ml. Format: functional.
Series [19] has as its system Escherichia coli. Kind of series: Antibacterial activity against Escherichia coli harboring serine beta-lactamase OXA-48 infected in Kunming mouse model assessed as reduction in bacterial load in liver at 20 mg/kg, ip. Format: functional, organism-based.
Series [20] has as its system Escherichia coli. Briefly: Synergistic antibacterial activity against Escherichia coli BL21 (DE3) harboring metallo-beta-lactamase IMP-1 assessed as decrease in bacterial colony at 128 microg/ml incubated for 12 hrs in presence of meropenem by imaging analysis. Format: functional, organism-based. The conditions noted are these: dose 128.0 µg/ml.
Series [21] concerns Escherichia coli. Briefly: Antibacterial activity against Escherichia coli harboring serine beta-lactamase OXA-48 infected in Kunming mouse model assessed as reduction in bacterial load in spleen at 20 mg/kg, ip. Type of series: functional, organism-based.
Series [22] concerns the target Metallo-beta-lactamase type 2 (Bacteria, UniProt C7C422). Kind of series: Inhibition of recombinant NDM-1 (unknown origin) expressed in Escherichia coli BL21 (DE3) cells using meropenem as substrate by spectrometric analysis.
The target in series [23] is Metallo-beta-lactamase type 2 (Bacteria) (UniProt C7C422). Briefly: Inhibition of recombinant NDM-1 (unknown origin) expressed in Escherichia coli BL21 (DE3) cells using meropenem as substrate at 20 uM by spectrometric analysis relative to control.
Chain of Metallo-beta-lactamase type 2 (Bacteria) (C7C422 whole entry): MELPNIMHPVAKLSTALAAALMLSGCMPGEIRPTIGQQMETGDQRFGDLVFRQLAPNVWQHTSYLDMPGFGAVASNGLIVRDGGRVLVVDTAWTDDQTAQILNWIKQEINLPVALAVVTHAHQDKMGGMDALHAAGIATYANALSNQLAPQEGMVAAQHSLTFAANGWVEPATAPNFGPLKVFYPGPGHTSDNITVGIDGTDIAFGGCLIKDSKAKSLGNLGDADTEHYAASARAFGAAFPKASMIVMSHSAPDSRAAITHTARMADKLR
Series [24] concerns Bacteria. Briefly: Inhibition of recombinant metallo-beta-lactamase IMP-1 (unknown origin) expressed in Escherichia coli BL21 (DE3) cells using cefazolin as substrate at 20 uM by spectrometric analysis relative to control.
The test system of series [25] is Bacteria. Briefly: Inhibition of recombinant metallo-beta-lactamase ImiS (unknown origin) expressed in Escherichia coli BL21 (DE3) cells using meropenem as substrate at 20 uM by spectrometric analysis relative to control.
Series [26] has as its system Bacteria. Kind of series: Inhibition of recombinant metallo-beta-lactamase L-1 (unknown origin) expressed in Escherichia coli BL21 (DE3) cells using cefazolin as substrate at 20 uM by spectrometric analysis relative to control.
Series [27] deals with Escherichia coli. Briefly: Synergistic antibacterial activity against Escherichia coli BL21 (DE3) harboring serine beta lactamase KPC-2 assessed as fold decrease in meropenem MIC at 64 microg/ml measured after 16 hrs by CLSI protocol based broth microdilution method. Type of series: functional. To be noted: dose 64 µg/ml.

Chain of Metallo-beta-lactamase type 2 (C7C422 whole entry): as above

What is called inhibition is the share of the control response that was lost under treatment. A word on the MIC: it is the smallest concentration in the dilution series that meets the test's criterion for growth inhibition. By IC50 is commonly meant the point on the concentration scale where inhibition reaches its midpoint. On to `CC(C)COC(=O)ONC(=O)CCC1CCCCC1`, for which the outcome in the series on Escherichia coli [1], in the series with Escherichia coli [2], with Escherichia coli [9], in the series on Escherichia coli [13], with Escherichia coli [15] and with Escherichia coli [20] was Active. For the same compound, the “fold change (FC)” value came out at 2 with Escherichia coli [3], 16 in the series on Escherichia coli [16] and 2 with Escherichia coli [18]. Further, the inhibition in the series on Bacteria [4] and in the series on Bacteria [11] was > 90% each time. In addition, the MIC in the series on Escherichia coli [5] came to 32 µg/mL; in the series with Escherichia coli [8], 0.063 µg/mL; in the series with Escherichia coli [14] it was 16 µg/mL; with Escherichia coli [17] it was 64 µg/mL. Further, the IC50 turned out to be 690 nM in series [6], 4490 nM in series [10], 2050 nM in series [12] and 4730 nM in [22]. Moreover, in series [7], the viability at 48 h, up to 200 µM is > 80%. Further, the outcome in the series with Escherichia coli [19] and with Escherichia coli [21] was inactive.

`CCOC(=O)ONC(=O)CCCc1ccccc1`: the “fold change (FC)” value with Escherichia coli [3], with Escherichia coli [16], in the series on Escherichia coli [18] and with Escherichia coli [27] was 2 throughout. In addition, the inhibition was > 90% in the series with Bacteria [4]; > 90% in [23]; > 90% in the series with Bacteria [11]; > 90% in the series on Bacteria [24]; < 42% with Bacteria [25]; < 42% in the series on Bacteria [26]. Also, the MIC with Escherichia coli [5] turned out to be 16 µg/mL; in the series with Escherichia coli [8] it was 0.5 µg/mL; in the series on Escherichia coli [14], 4 µg/mL; in the series on Escherichia coli [17], 64 µg/mL. The IC50 worked out at 980 nM in series [6], 2890 nM in series [10], 2880 nM in [12] and 990 nM in series [22].

With `CC(C)COC(=O)ONC(=O)CCCc1ccccc1`, the “fold change (FC)” value in the series on Escherichia coli [3], in the series with Escherichia coli [16], with Escherichia coli [18] and with Escherichia coli [27] was 2 each time. The inhibition was > 90% in the series on Bacteria [4]; > 90% in [23]; > 90% in the series on Bacteria [11]; > 90% in the series on Bacteria [24]; < 42% in the series on Bacteria [25]; < 42% in the series with Bacteria [26]. The MIC in the series with Escherichia coli [5] was 32 µg/mL; with Escherichia coli [8] it was 0.5 µg/mL; in the series on Escherichia coli [14], 8 µg/mL; in the series on Escherichia coli [17], 64 µg/mL. For the same compound, the IC50 in series [6] was 1470 nM; in [10] it was 850 nM; in series [12], 1030 nM; in series [22] it was 1870 nM.

With `CCCCCOC(=O)ONC(=O)CCCc1ccccc1`, the “fold change (FC)” value in the series on Escherichia coli [3], with Escherichia coli [16], with Escherichia coli [18] and in the series on Escherichia coli [27] was 2 in each case. Moreover, the inhibition with Bacteria [4] was > 90%; in series [23] it was > 90%; in the series with Bacteria [11] it was > 90%; with Bacteria [24], > 90%; in the series with Bacteria [25], < 42%; in the series with Bacteria [26] it was < 42%. Moreover, the MIC was found to be 16 µg/mL in the series with Escherichia coli [5], 0.5 µg/mL with Escherichia coli [8], 8 µg/mL with Escherichia coli [14] and 64 µg/mL with Escherichia coli [17]. For the same compound, the IC50 in [6] was 1470 nM; in [10], 850 nM; in [12], 1030 nM; in [22] it was 1870 nM.
